Where two headings read alike, the source gives them in different places.
Key:
HSV-1 = HSV-1 replication inhibition assay in Vero cells; assay type: cell-based, herpes simplex virus 1; settings: read-out: HSV-1 suppression (log10 at 5 μM), class symbol
HBV RNaseH [1] = molecular target: T1, HBV RNaseH (Hepatitis B virus genotype D subtype ayw, UniProt P03156); settings: for Inhibition of HBV RNaseH, Oligonucleotide directed cleavage assay: Table 3, compounds at 100, 60 and 20 μM, compounds 1-91 and 138-140 previously reported (Cai et al., 2014); for HBV RNaseH: Table 1, qualitative inhibition in biochemical assay; for inhibition of RNA cleavage by HBV RNaseH: compounds at 100, 60 and 20 μM
Target sequence in this assay (P03156 671-832): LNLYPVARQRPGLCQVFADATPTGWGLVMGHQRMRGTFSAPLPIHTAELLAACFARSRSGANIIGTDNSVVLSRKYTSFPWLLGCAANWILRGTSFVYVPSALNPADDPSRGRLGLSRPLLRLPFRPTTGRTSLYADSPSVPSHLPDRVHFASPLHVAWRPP

[2] = tested on: patient-derived RNAseH enzymes; assay: Biochemical RNAseH assay with variant patient-derived RNAseH enzymes; parameters: species or system Hepatitis B virus; settings: compounds at their respective IC50 values, four genotype D enzymes
Method: HBV has 8 genotypes differing in sequence by 8%. Genetic diversity in the RNAseH domain is about 6%, which is easily high enough to modulate viral sensitivity to RNAseH inhibitors. […] Twelve purified, patient-derived RNAseH enzymes (4 from each genotypes B, C and D) were tested with the compounds at their respective IC50 values in a biochemical RNAseH assay. […] Equivalent results were obtained for all 12 enzymes against compounds #1 and #46. Therefore, HBV's high genetic variation is unlikely to present a substantial barrier to drug development.

HBV RNaseH [3] = molecular target: T1, HBV RNaseH; assay: Molecular beacon RNaseH assay; settings: for inhibition in the molecular beacon assay: 2.1 μg purified HBV RNaseH; for Inhibition of HBV RNaseH, Molecular Beacon cleavage assay: Table 3, 0 to 500 μM
Target sequence in this assay (P03156 671-832): as above
Method: In this assay, a hairpin DNA oligonucleotide labeled with fluorescein on one end and a quencher on the other is held in a linear conformation by annealing to a complementary RNA; cleavage of the RNA causes the DNA to fold into a hairpin, suppressing fluorescence (FIG. 8A).
The substrate is a hairpin DNA oligonucleotide with a 5′ fluorescein reporter and a 3′ black hole quencher annealed to a complementary RNA oligonucleotide. The reaction was initiated by adding 5 mM Mg^++, and fluorescence was monitored at 37° C. with a Synergy 4 96-well plate reader. Inhibition was qualitatively determined as a dose-dependent reduction in the rate of substrate degradation.

HBV replication [4] = assay: Chou-Talalay synergy analysis with Lamivudine against HBV replication; settings: CI <1.0 indicates synergy
Method: Chou-Talaly analysis yields a combination index (CI). CI values <1.0 indicate synergy, CIs of approximately 1.0 indicate additive interactions, and CI values >1.0 indicate antagonism. CI values are calculated at various efficacy levels (EC50, EC75, EC90, and EC95), and a weighted CI value favoring higher efficacy levels is also generated.

HBV replication [5] = assay: HBV replication inhibition assay in HepDES19 cells (strand-preferential q-PCR); assay type: cell-based, Hepatitis B virus; settings: Hepatitis B virus
human RNaseH1 = molecular target: T2, human RNaseH1 (Homo sapiens, UniProt O60930); assay: Oligonucleotide-directed RNA cleavage assay, human RNaseH1; assay type: biochemical; settings: for IC50: Table 1, quantitative values
T2 construct: made in house; host or cells: E. coli
T2 sequence (O60930 1-286): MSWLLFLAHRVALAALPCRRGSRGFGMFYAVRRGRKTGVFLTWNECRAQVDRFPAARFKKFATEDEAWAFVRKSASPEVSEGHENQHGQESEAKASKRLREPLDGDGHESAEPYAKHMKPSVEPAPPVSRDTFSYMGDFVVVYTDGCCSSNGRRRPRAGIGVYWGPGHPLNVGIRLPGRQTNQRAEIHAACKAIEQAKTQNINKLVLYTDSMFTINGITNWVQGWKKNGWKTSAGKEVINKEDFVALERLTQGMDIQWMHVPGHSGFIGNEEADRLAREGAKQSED
Excerpt: RNaseH expression and purification.
Oligonucleotide-directed RNA cleavage assay.

HIV replication = settings: literature values (Billamboz et al., 2011b; Suchaud et al., 2014); cited from earlier work
[6] = Lactate dehydrogenase (LDH) release cytotoxicity assay; assay type: cell-based; settings: human, HepDES19 cells, read-out: Toxicity in HepDES19, LDH (CC50)
Method: (§1) To further evaluate potential cytotoxicity of these hits, the effect of the compounds was determined for the uptake of neutral red (NR) by the lysosomes and lactate dehydrogenase (LDH) release into the supernatant due to cell membrane permeability. […] Overall, the TI values in Table 3 and FIG. 4 indicate that cytotoxicity was not the cause of antiviral efficacy, although it may have contributed to the apparent efficacy for #84, 85, 90, and 91, which all have TI values below 5.

HepDES19 cells = assay: MTS cytotoxicity assay (CellTiter 96); settings: CC50 by MTS assay over EC50
Method: (§2) HepDES19 cells were seeded at 1×10^4 cells per well in a 96 well plate in the absence of tetracycline. The test compounds were applied in triplicate to the cells 48 hours later and the cells were incubated for 72 hours. Cell viability was measured using the CellTiter 96 Aqueous Non-Radioactive Cell Proliferation Assay (Promega). [3-(4,5-dimethylthiazol-2-yl)-5-(3-carboxymethoxyphenyl)-2-(4-sulfophenyl)-2H-tetrazolium, inner salt] (MTS) and phenazine methosulfate (PMS) solution at 2 mg/mL MTS and 0.043 mg/mL PMS were added to the medium, the cells were incubated for two hours at 37° C., and absorbance was measured at 490 nm. […] Neutral red was added to the media at a final concentration of 40 μg/mL. Cells were washed with PBS and incubated with neutral red medium for two hours at 37° C. The neutral red medium was removed and the cells were washed with PBS. […] Lactate dehydrogenase (LDH) release was measured using the LDH-cytotoxicity colorimetric assay kit (BioVision). Cells were lysed with 1% Triton-X to provide the high control and DMSO vehicle treatment was the low control. Supernatants were collected and transferred to a fresh 96 well plate, and LDH reaction mixture containing the catalyst and dye solution was added. The reaction was incubated for 15-20 minutes at room temperature in a dark box and absorbance was measured at 490 nm. Percent cytotoxicity was calculated as [(test sample−low control)/([…])]×100.

[7] = MTS cytotoxicity assay (CellTiter 96); settings: human
Method: as §2

[8] = Neutral red (NR) cytotoxicity assay; assay type: cell-based; settings: human, HepDES19 cells, read-out: Toxicity in HepDES19, NR (CC50)
Method: as §1

MTT cytotoxicity assay = assay type: cell-based; settings: human; Table 2, HepDES19 cells
Method: MTT cytotoxicity assays. 1.0×10^4 HepDES19 cells per well were seeded in 96-well plates and incubated in DMEM with 10% FBS plus 1% P/S, 1% non-essential amino acids, and 1% glutamine. Compounds were diluted in medium to the indicated concentrations plus 1% DMSO and added to cells 24 hours after plating, with each concentration tested in triplicate. Medium containing the compound was refreshed daily for the next two days. Thiazolyl blue tetrazolium bromide (MTT, Sigma-Aldrich) was added to 0.25 mg/mL, the cultures were incubated for 60 minutes, metabolites were solubilized in acidic isopropanol, and absorbance was read at 570 nm.

HBV RNaseH [9] = molecular target: T1, HBV RNaseH; assay: Detection of capsid-associated RNA:DNA heteroduplexes by Southern analysis; assay type: cell-based; parameters: expressed in transfected cells; host or cells: HepDES19 (HepG2 with a stably transfected HBV genotype D genome); settings: HepDES19 cells, seven days; #89 at 4×EC50 (10.4 μM), #138 at 30 μM
Method: RNA:DNA heteroduplexes migrate as double-stranded products, but degradation of the RNA strand with exogenous RNase causes the DNAs to migrate as single-stranded species. To test for accumulation of RNA:DNA heteroduplexes, HepDES19 cells replicating HBV were treated with 4×EC50 (10.4 μM) of compound #89 and 30 μM compound #138 (negative control). HBV cores were harvested after seven days of compound treatment. Capsid-associated nucleic acids were purified and split into two pools; one pool was treated with RNaseA and the other pool was mock treated.
HepDES19 cells were plated in 100 mm dishes without tetracycline and incubated for 72 hours in the absence of tetracycline before addition of compound #89 at 4×EC50 (10.4 μM) and the negative control compound #138 at 30 μM; compound-containing media was replaced every three days. HBV nucleic acids were purified seven days after compound addition. HBV core particles were isolated by sedimentation through a sucrose cushion as described (Tavis et al., 1998). Cores were treated overnight with proteinase K (0.5 mg/mL) and 1.5% SDS at 37° C. Nucleic acids were purified by phenol-chloroform extraction and ethanol precipitation. The nucleic acids were split into two pools. One pool was treated with RNaseA (1.5 μg/μL) at 37° C. for 30 minutes and the other was mock-treated. […]
Target sequence in this assay (P03156 whole entry): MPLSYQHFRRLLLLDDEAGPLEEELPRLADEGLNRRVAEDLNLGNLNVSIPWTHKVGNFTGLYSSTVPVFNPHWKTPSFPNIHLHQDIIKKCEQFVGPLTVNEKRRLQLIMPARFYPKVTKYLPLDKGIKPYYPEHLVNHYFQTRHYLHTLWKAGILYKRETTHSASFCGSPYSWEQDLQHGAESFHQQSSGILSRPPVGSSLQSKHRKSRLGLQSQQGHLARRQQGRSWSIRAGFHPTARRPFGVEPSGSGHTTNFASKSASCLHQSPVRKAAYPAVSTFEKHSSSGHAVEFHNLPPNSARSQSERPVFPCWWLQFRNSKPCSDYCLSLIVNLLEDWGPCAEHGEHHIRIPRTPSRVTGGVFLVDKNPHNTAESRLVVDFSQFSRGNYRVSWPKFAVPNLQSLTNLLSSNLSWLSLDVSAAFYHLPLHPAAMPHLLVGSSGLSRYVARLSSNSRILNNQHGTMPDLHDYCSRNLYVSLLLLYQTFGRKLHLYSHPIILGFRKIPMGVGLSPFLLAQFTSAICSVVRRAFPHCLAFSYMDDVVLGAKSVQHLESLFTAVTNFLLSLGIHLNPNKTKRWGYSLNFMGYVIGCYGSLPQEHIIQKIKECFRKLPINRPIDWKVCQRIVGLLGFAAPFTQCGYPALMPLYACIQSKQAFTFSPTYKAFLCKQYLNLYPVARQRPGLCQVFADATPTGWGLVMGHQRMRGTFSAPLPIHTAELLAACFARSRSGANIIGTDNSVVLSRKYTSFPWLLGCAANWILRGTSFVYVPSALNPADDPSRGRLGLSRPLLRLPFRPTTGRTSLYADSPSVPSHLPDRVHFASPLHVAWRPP

[10] = Stability in mouse liver microsomes; assay type: in vitro ADME
HBV infections = settings: cited from earlier work
[11] = Human alphaherpesvirus 1, 24 h, 5 μM, Vero cells
[12] = HepDES19, read-out: HBV replication inhibition (EC50, μm)
[13] = HepDES19 cells, read-out: EC50, HBV replication
[14] = Table 2, HepDES19 cells, read-out: EC50

## O=C1Cc2ccccc2C(=O)N1O [Compound 1, 2-hydroxyisoquinoline-1,3(2H,4H)-dione]
HSV-1; [11]
  log reduction at 5 µM: < 1
HBV RNaseH [1]
  Inhibition of HBV RNaseH, Oligonucleotide directed cleavage assay: + (Dose-dependent inhibition at ≤100 μM)
[2]
  inhibition of variant genotype D RNAseH enzymes: about 50%
HBV RNaseH [3]
  inhibition in the molecular beacon assay: inhibited
  Inhibition of HBV RNaseH, Molecular Beacon cleavage assay: + (Dose-dependent inhibition at ≤500 μM)
HBV replication [4]
  weighted combination index (CI) with Lamivudine: 0.70±0.1
HBV replication [5]; [12]
  EC50: 4.2 ± 1.4 µM

## CC(C)c1ccc(O)c(=O)c(O)c1 [Compound 46, β-thujaplicinol, reference compound]
[2]
  inhibition of variant genotype D RNAseH enzymes: about 50%
HBV replication [4]
  weighted combination index (CI) with Lamivudine: 0.44±0.3

## COC(=O)C1C(=O)N(O)C(=O)c2ccccc21 (centres unmarked) [Compound 81]
HSV-1; Human alphaherpesvirus 1, Vero, 24 h
  log reduction at 5 µM: < 1
Human RNaseH1
  IC50: 4.9 µM
HBV RNaseH [1]
  HBV RNaseH: +/−
  Inhibition of HBV RNaseH, Oligonucleotide directed cleavage assay: − (No inhibition detected at 100 μM)
  inhibition of RNA cleavage by HBV RNaseH: negative
HBV RNaseH [3]
  inhibition in the molecular beacon assay: inhibited
  Inhibition of HBV RNaseH, Molecular Beacon cleavage assay: + (Dose-dependent inhibition at ≤500 μM)
HIV replication
  EC50: 13.4 µM
HBV replication [5]; [12]
  EC50: 4.4 ± 3 µM
HBV replication [5]; [13]
  EC50: 4.4 µM
HBV replication [5]; [14]
  EC50: 4 µM

## O=C(Nc1ccc2c(c1)C(=O)N(O)C(=O)C2C(=O)NCc1ccc(F)cc1)c1ccccc1 (centres unmarked) [Compound 86]
HSV-1; [11]
  log reduction at 5 µM: < 1
[6]
  CC50 at 72 h: > 100 µM
Human RNaseH1
  IC50: 4 µM
HepDES19 cells
  TI (therapeutic index, CC50(MTS)/EC50): 71
[7]
  CC50 at 72 h: 99 ± 2 µM
[8]
  CC50 at 72 h: 52 ± 11 µM
HBV RNaseH [1]
  HBV RNaseH: +/−
  Inhibition of HBV RNaseH, Oligonucleotide directed cleavage assay: − (No inhibition detected at 100 μM)
HBV RNaseH [3]
  Inhibition of HBV RNaseH, Molecular Beacon cleavage assay: − (No inhibition detected at 500 μM)
HIV replication
  EC50: > 21 µM
HBV replication [5]; [12]
  EC50: 1.4 ± 0.3 µM
HBV replication [5]; [13]
  EC50: 1.4 µM
HBV replication [5]; [14]
  EC50: 1.4 µM
MTT cytotoxicity assay
  CC50: > 100 µM

## COc1ccc(CNC(=O)C2C(=O)N(O)C(=O)c3cc([N+](=O)[O-])ccc32)cc1 (centres unmarked) [Compound 89]
HSV-1; [11]
  log reduction at 5 µM: < 1
Human RNaseH1; Table 1, qualitative inhibition
  Human RNaseH1: ++ (detectable inhibition at 20 μM)
HBV RNaseH [1]
  Inhibition of HBV RNaseH, Oligonucleotide directed cleavage assay: − (No inhibition detected at 100 μM)
HBV RNaseH [9]
  accumulation of RNA:DNA heteroduplexes: caused RNA:DNA heteroduplexes to accumulate
HBV RNaseH [3]
  Inhibition of HBV RNaseH, Molecular Beacon cleavage assay: − (No inhibition detected at 500 μM)
HBV replication [5]; [12]
  EC50: 2.6 ± 0.8 µM

## C/C(=N\c1ccccc1NO)c1c(C)cc(=O)n(O)c1O [Compound 208]
HSV-1; [11]
  log reduction at 5 µM: < 1
[6]
  CC50 at 72 h: 12 ± 0.1 µM
[10]
  stability in mouse liver microsomes: stable
Human RNaseH1; compounds at 100, 60 and 20 μM
  inhibition of huRNaseH1: did not inhibit the huRNaseH1 at 100 μM
[7]
  CC50 at 72 h: 15 ± 7 µM
[8]
  CC50 at 72 h: 13 ± 1 µM
HBV RNaseH [1]
  Inhibition of HBV RNaseH, Oligonucleotide directed cleavage assay: + (Dose-dependent inhibition at ≤100 μM)
  inhibition of RNA cleavage by HBV RNaseH: inhibited RNA cleavage by the HBV RNaseH
HBV RNaseH [3]
  inhibition in the molecular beacon assay: inhibited
  Inhibition of HBV RNaseH, Molecular Beacon cleavage assay: + (Dose-dependent inhibition at ≤500 μM)
HBV replication [5]; HepDES19, read-out: EC50, HBV replication
  EC50: 0.69 µM
HBV replication [5]; [12]
  EC50: 0.69 ± 0.2 µM

## Interferon α
HBV infections
  patients with sustained clinical improvement: 20-30%

— US20190070165A1, “N-HYDROXYISOQUINOLINEDIONE INHIBITORS OF HBV REPLICATION” (Saint Louis University, priority 2016, published 2019)
